Experimental data taken from PubChem BioAssay (NCI).
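Cells were grown in 96-well plates and exposed to each compound for 48 hours at five concentrations; endpoints were interpolated linearly between bracketing concentrations, or set to the highest concentration if not reached. GI50: concentration for 50% inhibition of growth. TGI marks complete inhibition of growth.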

Legend:
Assay in all cases: NCI-60 cell line screen, 48 h
OVCAR-5 ovarian = tested on: OVCAR-5 ovarian
HCT-116 colon = tested on: HCT-116 colon
MCF7 breast = tested on: MCF7 breast
NCI/ADR-RES ovarian = tested on: NCI/ADR-RES ovarian
CAKI-1 renal = tested on: CAKI-1 renal
UACC-62 melanoma = tested on: UACC-62 melanoma
BT-549 breast = tested on: BT-549 breast
SF-539 CNS = tested on: SF-539 CNS
ACHN renal = tested on: ACHN renal
SF-295 CNS = tested on: SF-295 CNS

Structure (SMILES)	GI50 (OVCAR-5 ovarian)	TGI (OVCAR-5 ovarian)	GI50 (HCT-116 colon)	TGI (HCT-116 colon)	GI50 (MCF7 breast)	TGI (MCF7 breast)	GI50 (NCI/ADR-RES ovarian)	TGI (NCI/ADR-RES ovarian)	GI50 (CAKI-1 renal)	TGI (CAKI-1 renal)	GI50 (UACC-62 melanoma)	TGI (UACC-62 melanoma)	GI50 (BT-549 breast)	TGI (BT-549 breast)	GI50 (SF-539 CNS)	TGI (SF-539 CNS)	GI50 (ACHN renal)	TGI (ACHN renal)	GI50 (SF-295 CNS)	TGI (SF-295 CNS)
O=C1/C=C/[C@@H](O)[C@@H]2C[C@@H](O)C[C@H]2/C=C/CCC[C@H](CO)O1	4.19 µM	> 100 µM	2.52 µM	6.54 µM	1.79 µM	5.88 µM	3.17 µM	> 100 µM	3.74 µM	> 100 µM	2.55 µM	> 100 µM	3.98 µM	> 100 µM	3.7 µM	> 100 µM	3.97 µM	> 100 µM	–	–
CN(C)Cc1cccc(CN(C)C)[c]1[Sn]([Br])([c]1ccccc1)[c]1ccccc1	16.7 µM	32.5 µM	4.31 µM	17.3 µM	10.5 µM	24.5 µM	44 µM	> 100 µM	21.3 µM	47.1 µM	–	–	1.83 µM	7.94 µM	15.2 µM	30.3 µM	19.1 µM	40.4 µM	14.8 µM	32.1 µM
CCCC1C(=O)C(CC)Cc2c(OC)ccc(OC)c21 (stereo not given)	–	> 100 µM	–	–	–	–	–	–	–	> 100 µM	–	> 100 µM	–	–	–	> 100 µM	–	> 100 µM	–	> 100 µM
N#CC(C(=O)CCC(=O)Nc1ccc(Cl)cc1)c1ccccc1Cl (stereo not given)	–	> 100 µM	–	> 100 µM	–	–	–	–	–	> 100 µM	–	> 100 µM	–	–	–	> 100 µM	–	> 100 µM	–	> 100 µM
CCN(CC)C(=O)CNC(=O)OC(C)(C)C	–	> 100 µM	–	> 100 µM	–	–	–	–	–	> 100 µM	–	> 100 µM	–	–	–	> 100 µM	–	> 100 µM	–	> 100 µM
CC(C(=O)c1ccccc1)C1(O)C(=O)Nc2ccccc21 (stereo not given)	–	> 100 µM	–	> 100 µM	–	–	–	–	–	> 100 µM	–	> 100 µM	–	–	–	> 100 µM	–	> 100 µM	–	> 100 µM
N#C/C(=C/C=C/c1ccccc1)S(=O)c1ccccc1 (stereo not given)	0.3 µM	1.07 µM	–	–	–	–	0.369 µM	13.7 µM	0.418 µM	1.55 µM	0.435 µM	1.89 µM	0.712 µM	2.35 µM	0.267 µM	1.07 µM	0.2 µM	0.462 µM	1.44 µM	3.14 µM
C[Si](C)(C)/C=C\CCCN1C(=O)CCC1=O	–	> 100 µM	–	> 100 µM	–	–	–	–	–	–	–	> 100 µM	–	–	–	> 100 µM	–	> 100 µM	–	> 100 µM
COc1ccc(-c2csc(NC(=O)N3CCN(c4cc5c(cc4F)c(=O)c(C(=O)O)cn5C4CC4)CC3)n2)cc1	–	–	1.72 µM	> 100 µM	2.6 µM	> 100 µM	5.87 µM	> 100 µM	–	–	–	–	0.616 µM	6.64 µM	1.8 µM	> 100 µM	2.66 µM	> 100 µM	2.25 µM	8.79 µM
O=C(c1cc2c(C(F)(F)F)onc2c2ccccc12)C(F)(F)F	–	> 100 µM	–	1.03 µM	–	–	–	–	–	20.9 µM	–	17 µM	–	–	–	15.8 µM	–	14 µM	–	> 29.3 µM
CCOC(=O)CNC1C(NC(C)=O)C(OC)OC2COC(c3ccccc3)OC21 (stereo not given)	–	> 100 µM	–	> 100 µM	–	–	–	–	–	> 100 µM	–	> 100 µM	–	–	–	> 100 µM	–	> 100 µM	–	> 100 µM
NNC(=O)CCC(=O)Nc1ccc(Cl)cc1Cl	–	> 100 µM	–	> 100 µM	–	–	–	–	–	> 100 µM	–	> 100 µM	–	–	–	> 100 µM	–	> 100 µM	–	> 100 µM
COc1cc2ccnc3c2c(c1OC)CC1CC(O)C(OC)CC31 (stereo not given)	–	> 100 µM	–	> 100 µM	–	–	–	–	–	–	–	> 100 µM	–	–	–	55.4 µM	–	> 100 µM	–	> 100 µM
COc1cc([C@@H]2c3cc4c(cc3[C@@H](NCc3ccc(C#N)cc3)C3COC(=O)[C@@H]32)OCO4)cc(OC)c1O (stereo not given in full)	–	8.71 µM	–	11.8 µM	–	–	–	–	–	8.83 µM	–	2.75 µM	–	–	–	2.36 µM	–	1.55 µM	–	> 100 µM
CC([C@H]1CCC2C3CCC4CC5(CC[C@]4(C)C3CC[C@@]21C)c1ccccc1C(=O)N5C)N(C)C (stereo not given in full)	–	> 100 µM	–	> 100 µM	–	–	–	–	–	> 100 µM	–	73 µM	–	–	–	71.8 µM	–	> 100 µM	–	48.5 µM
O=C1/C(=C/c2ccccc2Br)COc2ccc(O)c(O)c21	2.15 µM	4.39 µM	1.31 µM	2.78 µM	0.583 µM	6.02 µM	1.88 µM	11.6 µM	1.31 µM	2.74 µM	1.55 µM	3.29 µM	2.17 µM	5.95 µM	–	–	1.32 µM	3.09 µM	2.96 µM	8.04 µM
CCCCCCCC(=O)OCC1OC(n2cc(F)c(=O)[nH]c2=O)C(NC(=O)OCc2ccccc2)C(OC(=O)CCCCCCC)C1O (stereo not given)	–	–	–	> 100 µM	–	–	–	–	–	> 100 µM	–	45.7 µM	–	–	–	74.4 µM	–	> 100 µM	–	> 100 µM
CC1Cc2c(N)nc(N3CCOCC3)nc2NC1=O (stereo not given)	–	–	–	> 100 µM	–	–	–	–	–	–	–	> 100 µM	–	–	–	> 100 µM	–	> 100 µM	–	> 100 µM
C[C@]12CC(C#N)C(=O)C(O)=C1CC[C@@H]1C2CC[C@@]2(C)C1CC[C@@H]2O (stereo not given in full)	–	> 100 µM	–	> 100 µM	–	–	–	–	–	–	–	83.8 µM	–	–	–	> 100 µM	–	> 100 µM	–	> 100 µM
O=C1C(Cl)=C(Nc2cccc(O)c2)C(=O)N1c1cccc(Cl)c1	62.5 µM	> 100 µM	21.7 µM	> 100 µM	36 µM	> 100 µM	64.1 µM	> 100 µM	49.9 µM	> 100 µM	27 µM	> 100 µM	27.3 µM	> 100 µM	–	–	85.4 µM	> 100 µM	61.6 µM	> 100 µM
CC(C)c1cccc(C(C)C)c1N=C(N)C#N	–	> 100 µM	–	> 58.6 µM	–	–	–	–	–	> 100 µM	–	99.1 µM	–	–	–	50 µM	–	> 100 µM	–	> 100 µM
